In ChEMBL document CHEMBL1145390, “Synthesis and preliminary biological characterization of new semisynthetic derivatives of ramoplanin” (J Med Chem, 2007):
Converted amounts (≈) assume the structure as drawn. The source made the active and inactive calls. No cut-off for these calls is given here.

Tests used:
[1] = Toxicity assessed as hemolysis in erythrocytes at 600 mg/L; assay type: cell-based, Erythrocyte; conditions: human, read-out: Activity
Staphylococcus aureus [2] = test: Antibacterial activity against vancomycin-intermediate resistant Staphylococcus aureus clinical isolate after 24 hrs by broth microdilution method; assay type: functional
Enterococcus faecium [3] = test: Antibacterial activity against vancomycin A-resistant Enterococcus faecium clinical isolate in presence of 30% bovine serum after 24 hrs by broth microdilution method; assay type: functional
Staphylococcus aureus [4] = test: Antibacterial activity against methicillin-resistant and vancomycin-intermediate resistant Staphylococcus aureus clinical isolate after 24 hrs by broth microdilution method; assay type: functional; conditions: read-out: MIC
[5] = Toxicity assessed as hemolysis in erythrocytes at 300 mg/L; assay type: cell-based, Erythrocyte; conditions: human, read-out: Activity
Enterococcus faecalis [6] = test: Antibacterial activity against vancomycin A-resistant Enterococcus faecalis after 24 hrs by broth microdilution method; assay type: functional; conditions: read-out: MIC
Staphylococcus aureus [7] = test: Antibacterial activity against Staphylococcus aureus Smith after 24 hrs by broth microdilution method; assay type: functional; conditions: read-out: MIC
Enterococcus faecalis [8] = test: Antibacterial activity against Enterococcus faecalis after 24 hrs by broth microdilution method; assay type: functional; conditions: read-out: MIC
Escherichia coli = test: Antibacterial activity against Escherichia coli SKF-12140 after 24 hrs by broth microdilution method; assay type: functional; conditions: read-out: MIC
Candida albicans = test: Antifungal activity against Candida albicans SKF-2270 after 24 hrs by broth microdilution method; assay type: functional; conditions: read-out: MIC
[9] = Toxicity assessed as hemolysis in erythrocytes at 1200 mg/L; assay type: cell-based, Erythrocyte; conditions: human, read-out: Activity
Enterococcus faecium [10] = test: Antibacterial activity against Enterococcus faecium after 24 hrs by broth microdilution method; assay type: functional; conditions: for MIC: read-out: MIC
Staphylococcus aureus [11] = test: Antibacterial activity against Staphylococcus aureus Smith in presence of 30% bovine serum after 24 hrs by broth microdilution method; assay type: functional
Streptococcus pyogenes = test: Antibacterial activity against Streptococcus pyogenes C203 after 24 hrs by broth microdilution method; assay type: functional; conditions: C203, 24 h, read-out: MIC
Enterococcus faecalis [12] = test: Antibacterial activity against vancomycin-resistant Enterococcus faecalis in presence of 30% bovine serum after 24 hrs by broth microdilution method; assay type: functional
Staphylococcus aureus [13] = test: Antibacterial activity against vancomycin-intermediate resistant Staphylococcus aureus clinical isolate in presence of 30% bovine serum after 24 hrs by broth microdilution method; assay type: functional
Staphylococcus aureus [14] = test: Antibacterial activity against methicillin-resistant Staphylococcus aureus clinical isolate after 24 hrs by broth microdilution method; assay type: functional; conditions: read-out: MIC
Enterococcus faecium [15] = test: Antibacterial activity against vancomycin A-resistant Enterococcus faecium clinical isolate after 24 hrs by broth microdilution method; assay type: functional; conditions: read-out: MIC
[16] = Toxicity assessed as hemolysis in erythrocytes at 90 mg/L; assay type: cell-based, Erythrocyte; conditions: human, erythrocytes; read-out: Activity
[17] = Toxicity assessed as hemolysis in erythrocytes at 180 mg/L; assay type: cell-based, Erythrocyte; conditions: human, erythrocytes; read-out: Activity
[18] = Toxicity assessed as hemolysis in erythrocytes at 800 mg/L; assay type: cell-based, Erythrocyte; conditions: human, read-out: Activity
[19] = Toxicity assessed as hemolysis in erythrocytes at 200 mg/L; assay type: cell-based, Erythrocyte; conditions: human, read-out: Activity
[20] = Toxicity assessed as hemolysis in erythrocytes at 100 mg/L; assay type: cell-based, Erythrocyte; conditions: human, read-out: Activity
[21] = Toxicity assessed as hemolysis in erythrocytes at 400 mg/L; assay type: cell-based, Erythrocyte; conditions: human, read-out: Activity
[22] = Toxicity assessed as hemolysis in erythrocytes at 1600 mg/L; assay type: cell-based, Erythrocyte; conditions: human, read-out: Activity

Row | SMILES | hemolysis at 600 mg/L [1] [%] | MIC (Staphylococcus aureus [2]) [µg/mL] | MIC (Enterococcus faecium [3]) [µg/mL] | MIC (Staphylococcus aureus [4]) [µg/mL] | hemolysis at 300 mg/L [5] [%] | MIC (Enterococcus faecalis [6]) [µg/mL] | MIC (Staphylococcus aureus [7]) [µg/mL] | MIC (Enterococcus faecalis [8]) [µg/mL] | MIC (Escherichia coli) [µg/mL] | MIC (Candida albicans) [µg/mL] | hemolysis at 1200 mg/L [9] [%] | MIC (Staphylococcus aureus [11]) [µg/mL] | MIC (Streptococcus pyogenes) [µg/mL] | MIC (Enterococcus faecalis [12]) [µg/mL] | MIC (Staphylococcus aureus [13]) [µg/mL] | MIC (Staphylococcus aureus [14]) [µg/mL] | MIC (Enterococcus faecium [15]) [µg/mL] | MIC (Enterococcus faecium [10]) [µg/mL] | other results
1 | Cc1ccccc1C(C)C(=O)N[C@@H](CC(N)=O)C(=O)NC[C@@H]1C(=O)N[C@H](c2ccc(O)cc2)C(=O)N[C@H](CCCN)C(=O)N[C@H](C(C)C)C(=O)N[C@@H](c2ccc(O)cc2)C(=O)N[C@H](c2ccc(O)cc2)C(=O)N[C@@H]([C@@H](C)O)C(=O)N[C@@H](Cc2ccccc2)C(=O)N[C@H](CCCN)C(=O)N[C@@H](c2ccc(O[C@H]3O[C@H](CO)[C@@H](O)[C@H](O)[C@@H]3O[C@H]3O[C@H](CO)[C@@H](O)[C@H](O)[C@@H]3O)cc2)C(=O)N[C@H]([C@@H](C)O)C(=O)N[C@@H](c2ccc(O)cc2)C(=O)NCC(=O)N[C@@H](CC(C)C)C(=O)N[C@H](C)C(=O)N[C@@H](c2ccc(O)c(Cl)c2)C(=O)O[C@@H]1C(N)=O (stereo partly specified) | 4 | 2 (≈ 0.776 µM) | 8 | 4 (≈ 1.55 µM) | 2 | 1 (≈ 0.388 µM) | 0.25 (≈ 0.097 µM) | 0.5 (≈ 0.194 µM) | > 128 | > 128 | 45 | 1 | ≤ 0.125 | 2 | 4 | 0.5 (≈ 0.194 µM) | 1 (≈ 0.388 µM) | – | Activity (Enterococcus faecium [10]): inactive
2 | Cc1ccc(CC(=O)N[C@@H](CC(N)=O)C(=O)NC[C@@H]2C(=O)N[C@H](c3ccc(O)cc3)C(=O)N[C@H](CCCN)C(=O)N[C@H](C(C)C)C(=O)N[C@@H](c3ccc(O)cc3)C(=O)N[C@H](c3ccc(O)cc3)C(=O)N[C@@H]([C@@H](C)O)C(=O)N[C@@H](Cc3ccccc3)C(=O)N[C@H](CCCN)C(=O)N[C@@H](c3ccc(O[C@H]4O[C@H](CO)[C@@H](O)[C@H](O)[C@@H]4O[C@H]4O[C@H](CO)[C@@H](O)[C@H](O)[C@@H]4O)cc3)C(=O)N[C@H]([C@@H](C)O)C(=O)N[C@@H](c3ccc(O)cc3)C(=O)NCC(=O)N[C@@H](CC(C)C)C(=O)N[C@H](C)C(=O)N[C@@H](c3ccc(O)c(Cl)c3)C(=O)O[C@@H]2C(N)=O)cc1.Cl | 11 | 2 | 2 | 4 | 2 | ≤ 0.125 | ≤ 0.125 | 0.25 | > 128 | > 128 | 9 | 0.5 | ≤ 0.125 | 2 | 4 | ≤ 0.125 | 0.5 | 0.5 | hemolysis at 90 mg/L [16]: 0%; hemolysis at 180 mg/L [17]: 0%
3 | Cc1ccccc1C(=O)N[C@@H](CC(N)=O)C(=O)NC[C@@H]1C(=O)N[C@H](c2ccc(O)cc2)C(=O)N[C@H](CCCN)C(=O)N[C@H](C(C)C)C(=O)N[C@@H](c2ccc(O)cc2)C(=O)N[C@H](c2ccc(O)cc2)C(=O)N[C@@H]([C@@H](C)O)C(=O)N[C@@H](Cc2ccccc2)C(=O)N[C@H](CCCN)C(=O)N[C@@H](c2ccc(O[C@H]3O[C@H](CO)[C@@H](O)[C@H](O)[C@@H]3O[C@H]3O[C@H](CO)[C@@H](O)[C@H](O)[C@@H]3O)cc2)C(=O)N[C@H]([C@@H](C)O)C(=O)N[C@@H](c2ccc(O)cc2)C(=O)NCC(=O)N[C@@H](CC(C)C)C(=O)N[C@H](C)C(=O)N[C@@H](c2ccc(O)c(Cl)c2)C(=O)O[C@@H]1C(N)=O | – | 8 (≈ 3.14 µM) | ≤ 0.125 | 8 (≈ 3.14 µM) | – | 2 (≈ 0.785 µM) | 1 (≈ 0.392 µM) | 2 (≈ 0.785 µM) | > 128 | > 128 | – | 1 | ≤ 0.125 | 2 | 4 | 1 (≈ 0.392 µM) | 4 (≈ 1.57 µM) | 2 (≈ 0.785 µM) | hemolysis at 800 mg/L [18]: 94%; hemolysis at 200 mg/L [19]: 17%; hemolysis at 100 mg/L [20]: 2%; hemolysis at 400 mg/L [21]: 83%; hemolysis at 1600 mg/L [22]: 93%
4 | Cc1cccc(CC(=O)N[C@@H](CC(N)=O)C(=O)NC[C@@H]2C(=O)N[C@H](c3ccc(O)cc3)C(=O)N[C@H](CCCN)C(=O)N[C@H](C(C)C)C(=O)N[C@@H](c3ccc(O)cc3)C(=O)N[C@H](c3ccc(O)cc3)C(=O)N[C@@H]([C@@H](C)O)C(=O)N[C@@H](Cc3ccccc3)C(=O)N[C@H](CCCN)C(=O)N[C@@H](c3ccc(O[C@H]4O[C@H](CO)[C@@H](O)[C@H](O)[C@@H]4O[C@H]4O[C@H](CO)[C@@H](O)[C@H](O)[C@@H]4O)cc3)C(=O)N[C@H]([C@@H](C)O)C(=O)N[C@@H](c3ccc(O)cc3)C(=O)NCC(=O)N[C@@H](CC(C)C)C(=O)N[C@H](C)C(=O)N[C@@H](c3ccc(O)c(Cl)c3)C(=O)O[C@@H]2C(N)=O)c1 | 0 | 1 (≈ 0.39 µM) | 4 | 2 (≈ 0.781 µM) | 0 | ≤ 0.125 | ≤ 0.125 | 0.25 (≈ 0.0976 µM) | > 128 | > 128 | 5 | 1 | ≤ 0.125 | 1 | 4 | 0.25 (≈ 0.0976 µM) | 0.5 (≈ 0.195 µM) | 0.5 (≈ 0.195 µM) | –
